{
  "source": "patent US5728709A",
  "about": "“Alkyl and aralkyl-substituted pyrrolocarbazole derivatives that stimulate platelet production” (Kyowa Hakko Kogyo Co., Ltd., priority 1995, dated 1998)",
  "key": {"[1]": {"system": "Megakaryocyte Colony Formation", "experiment": "Megakaryocyte Colony Formation-Stimulating Activity", "format": "cell-based, Balb/c mouse", "details": "IL-3 present, 7 days culture, relative to control (IL-3 alone) = 100", "method": "An eight-week-old Balb/c mouse was killed. Its femurs and cervical vertebrae were taken out and both ends thereof were cut off. Bone marrow cells were collected from the pieces cut off from the femurs and cervical vertebrae using a syringe containing IMDM (430-2200EA manufactured by Gibco Co.), and blown into a test tube. The test tube was allowed to stand for 5 minutes, and the supernatant was collected with a pipet. Each of the test compounds at various concentrations was separately added to a separate reaction mixture corltaining the bone marrow cells (50,000 cells), bovine serum albumin (2%: A4508, manufactured by Sigma Co.), transferrin (600 μg/ml: 652202, manufactured by Boehringer Mannheim Co.), IL-3 (100 U/ml) , cholesterol (16 μg/ml: 036-0641, manufactured by Wako Co.) and agar (0.6%: 0142-02, manufactured by Difco Laboratories);Then, 1 ml each of the mixtures was put into a 35-mm dishes (manufactured by Lux Co.); and cultured at 37° C., 5% CO2, and relative humidity of not less than 95%, for 7 days. A control was prepared by adding IL-3 alone to the bone marrow cells. After the completion of the culturing, the resultant agar was dried by using filter paper (1001-055, manufactured by Whatman Co.), fixed with 2.5% glutaraldehyde, followed by acetylcholinesterase staining (ACHE staining).\nACHE staining was carried out according to the following method:\nACHE staining: To each sample was added a solution containing 0.67 mg/ml acetylthiocholine iodide, 2.94 mg/ml sodium citrate, 7.5 mg/ml copper (II) sulfate, and 1.65 mg/ml potassium ferricyanide. Then, the mixture was allowed to stand at room temperature in the dark for 4 to 6 hours.\nA group of 4 or more megakaryocytes which were stained reddish brown was regarded as one colony, and the number of colonies per dish was calculated using a microscope.\nThe results are shown in Table 5 as values relative to the control. (In the table, the relative values were calculated on the basis of the control defined as 100)."}, "Platelet Production": {"system": "Platelet Production", "experiment": "Platelet Production-Stimulating Activity in Mice", "format": "in vivo", "details": "Mus musculus, 360 h, male Balb/c mice, 15th day, control = 100, read-out: Ratio of increase (number of platelets, A/B×100); for response vs control in vivo at 50 mg/kg: 50 mg/kg i.p. once a day for 5 days", "method": "A test compound was intraperitoneally (i. p.) or subcutaneously (s. c.) administered to 7-week-old male Balb/c mice once a day for consecutive 5 days (test group, 4 mice per group). A control group (4 mice per group) was administered only a solvent (5% Tween 80/water) alone. On the 15th day from the start of the administration, blood was collected from the fundus oculi vein of each mouse, and the number of platelets was counted with a micro counter (Model CC-180A, manufactured by Toa Iryo Denshi Co.). The rate (%) of increase in the number of platelets in the test group which had been administered test compounds over the control group was calculated according to the following formula to evaluate the effect of the test compound.\n[Ratio of increase]=A/B×100\nA: the number of platelets in the test group\nB: the number of platelets in the control group"}, "[2]": {"details": "sc, free base, 10 mg/kg s.c. once a day for 5 days"}, "[3]": {"details": "sc, 10 mg/kg s.c. once a day for 5 days"}},
  "note": "Like-named read-outs stand apart in the source and are kept apart here.",
  "data": [
    {"smiles": "O=C1c2c(-c3ccccc3[N+](=O)[O-])cc3[nH]c4ccccc4c3c2C(=O)N1Cc1ccccc1", "note": "[Compound 1]", "values": [
      {"measurement": "Rel. Value (megakaryocyte colony formation, control defined as 100)", "setting": "[1]; 1 nM", "value": 147}
    ]},
    {"smiles": "Nc1ccccc1-c1cc2[nH]c3ccccc3c2c2c1C(=O)N(Cc1ccccc1)C2=O", "note": "[Compound 5]", "values": [
      {"measurement": "Rel. Value (megakaryocyte colony formation, control defined as 100)", "setting": "[1]; 1 nM", "value": 117},
      {"measurement": "response vs control in vivo at 50 mg/kg", "setting": "Platelet Production; ip", "value": 111, "unit": "%"}
    ]},
    {"smiles": "CN1C(=O)c2c(-c3ccccc3[N+](=O)[O-])cc3[nH]c4ccccc4c3c2C1=O", "note": "[Compound 10]", "values": [
      {"measurement": "Rel. Value (megakaryocyte colony formation, control defined as 100)", "setting": "[1]; 1 nM", "value": 120}
    ]},
    {"smiles": "CN1C(=O)c2c(-c3ccccc3N)cc3[nH]c4ccccc4c3c2C1=O", "note": "[Compound 11]", "values": [
      {"measurement": "Rel. Value (megakaryocyte colony formation, control defined as 100)", "setting": "[1]; 10 nM", "value": 128}
    ]},
    {"smiles": "CN1C(=O)c2c(-c3ccccc3N)cc3c(c2C1=O)c1ccccc1n3Cc1ccc(N)cc1", "note": "[Compound 17]", "values": [
      {"measurement": "Rel. Value (megakaryocyte colony formation, control defined as 100)", "setting": "[1]; 1 nM", "value": 123}
    ]},
    {"smiles": "CN(C)CCCn1c2ccccc2c2c3c(c(-c4ccccc4[N+](=O)[O-])cc21)C(=O)N(C)C3=O", "note": "[Compound 24]", "values": [
      {"measurement": "Rel. Value (megakaryocyte colony formation, control defined as 100)", "setting": "[1]; 1 nM", "value": 125},
      {"measurement": "response vs control in vivo at 10 mg/kg", "setting": "Platelet Production; ip, 10 mg/kg i.p. once a day for 5 days", "value": 125, "unit": "%"}
    ]},
    {"smiles": "CN(C)CCCn1c2ccccc2c2c3c(c(-c4ccccc4N(C)C)cc21)C(=O)N(C)C3=O", "note": "[Compound 26]", "values": [
      {"measurement": "Rel. Value (megakaryocyte colony formation, control defined as 100)", "setting": "[1]; 10 nM", "value": 110}
    ]},
    {"smiles": "CN1C(=O)c2c(-c3ccccc3[N+](=O)[O-])cc3c(c2C1=O)c1ccccc1n3CCCCN1CCOCC1", "note": "[Compound 34]", "values": [
      {"measurement": "Rel. Value (megakaryocyte colony formation, control defined as 100)", "setting": "[1]; 0.1 nM", "value": 114}
    ]},
    {"smiles": "CN(C)CCCn1c2ccccc2c2c3c(c(-c4ccccc4NCCN(C)C)cc21)C(=O)N(C)C3=O", "note": "[Compound 36]", "values": [
      {"measurement": "Rel. Value (megakaryocyte colony formation, control defined as 100)", "setting": "[1]; 10 nM", "value": 149}
    ]},
    {"smiles": "CN1C(=O)c2c(-c3ccccc3NCCO)cc3c(c2C1=O)c1ccccc1n3C", "note": "[Compound 37]", "values": [
      {"measurement": "Rel. Value (megakaryocyte colony formation, control defined as 100)", "setting": "[1]; 1 nM", "value": 130}
    ]},
    {"smiles": "CN(C)CCNc1ccccc1-c1cc2c(c3c1C(=O)N(C)C3=O)c1ccccc1n2C", "note": "[Compound 40]", "values": [
      {"measurement": "Rel. Value (megakaryocyte colony formation, control defined as 100)", "setting": "[1]; 1 nM", "value": 138},
      {"measurement": "response vs control in vivo at 50 mg/kg", "setting": "Platelet Production; ip", "value": 174, "unit": "%"}
    ]},
    {"smiles": "CN(C)CCCNc1ccccc1-c1cc2c(c3c1C(=O)N(C)C3=O)c1ccccc1n2C", "note": "[Compound 51]", "values": [
      {"measurement": "Rel. Value (megakaryocyte colony formation, control defined as 100)", "setting": "[1]; 10 nM", "value": 141}
    ]},
    {"smiles": "CN(C)CC(=O)Nc1ccccc1-c1cc2c(c3c1C(=O)N(C)C3=O)c1ccccc1n2C", "note": "[Compound 56]", "values": [
      {"measurement": "Rel. Value (megakaryocyte colony formation, control defined as 100)", "setting": "[1]; 1 nM", "value": 116}
    ]},
    {"smiles": "CCN(CC)CCC(=O)Nc1ccccc1-c1cc2c(c3c1C(=O)N(C)C3=O)c1ccccc1n2C", "note": "[Compound 60]", "values": [
      {"measurement": "Rel. Value (megakaryocyte colony formation, control defined as 100)", "setting": "[1]; 1 nM", "value": 110}
    ]},
    {"smiles": "CN(C)CCOc1ccccc1-c1cc2c(c3c1C(=O)N(C)C3=O)c1ccccc1n2C", "note": "[Compound 66]", "values": [
      {"measurement": "Rel. Value (megakaryocyte colony formation, control defined as 100)", "setting": "[1]; 10 nM", "value": 119},
      {"measurement": "response vs control in vivo at 50 mg/kg", "setting": "Platelet Production; ip", "value": 206, "unit": "%"}
    ]},
    {"smiles": "CN(C)CCNc1ccc([N+](=O)[O-])cc1-c1cc2c(c3c1C(=O)N(C)C3=O)c1ccccc1n2C", "note": "[Compound 79]", "values": [
      {"measurement": "response vs control in vivo at 25 mg/kg", "setting": "Platelet Production; ip, 25 mg/kg i.p. once a day for 5 days", "value": 180, "unit": "%"}
    ]},
    {"smiles": "CN(C)CCNc1ccc(Br)cc1-c1cc2c(c3c1C(=O)N(C)C3=O)c1ccccc1n2C", "note": "[Compound 82]", "values": [
      {"measurement": "Rel. Value (megakaryocyte colony formation, control defined as 100)", "setting": "[1]; 10 nM", "value": 119}
    ]},
    {"smiles": "CN(C)CCn1c(=O)c2c(c3c(c4c5ccccc5n(C)c42)C(=O)N(C)C3=O)c2ccccc21", "note": "[Compound 93]", "values": [
      {"measurement": "Rel. Value (megakaryocyte colony formation, control defined as 100)", "setting": "[1]; 0.1 nM", "value": 119},
      {"measurement": "response vs control in vivo at 50 mg/kg", "setting": "Platelet Production; ip", "value": 176, "unit": "%"}
    ]},
    {"smiles": "CC(CN(C)C)Oc1ccccc1-c1cc2c(c3c1C(=O)N(C)C3=O)c1ccccc1n2C", "note": "(stereo not shown) [Compound 102]", "values": [
      {"measurement": "Rel. Value (megakaryocyte colony formation, control defined as 100)", "setting": "[1]; 1 nM", "value": 142},
      {"measurement": "response vs control in vivo at 10 mg/kg", "setting": "Platelet Production; [2]", "value": 123, "unit": "%"}
    ]},
    {"smiles": "CN(C)CCOc1ccc(Br)cc1-c1cc2c(c3c1C(=O)N(C)C3=O)c1ccccc1n2C", "note": "[Compound 130]", "values": [
      {"measurement": "response vs control in vivo at 10 mg/kg", "setting": "Platelet Production; [2]", "value": 295, "unit": "%"}
    ]},
    {"smiles": "CN(C)CCOc1ccc(OCc2ccccc2)cc1-c1cc2c(c3c1C(=O)N(C)C3=O)c1ccccc1n2C", "note": "[Compound 147]", "values": [
      {"measurement": "response vs control in vivo at 10 mg/kg", "setting": "Platelet Production; [3]", "value": 154, "unit": "%"}
    ]},
    {"smiles": "CN(C)CCOc1ccc(C=O)cc1-c1cc2c(c3c1C(=O)N(C)C3=O)c1cc(Br)ccc1n2C", "note": "[Compound 160]", "values": [
      {"measurement": "Rel. Value (megakaryocyte colony formation, control defined as 100)", "setting": "[1]; 10 nM", "value": 120},
      {"measurement": "response vs control in vivo at 10 mg/kg", "setting": "Platelet Production; [3]", "value": 117, "unit": "%"}
    ]},
    {"smiles": "CN(C)CCOc1ccc(N(C)C)cc1-c1cc2c(c3c1C(=O)N(C)C3=O)c1ccccc1n2C", "note": "[Compound 170]", "values": [
      {"measurement": "Rel. Value (megakaryocyte colony formation, control defined as 100)", "setting": "[1]; 1 nM", "value": 125},
      {"measurement": "response vs control in vivo at 10 mg/kg", "setting": "Platelet Production; [3]", "value": 138, "unit": "%"}
    ]},
    {"smiles": "CN(C)CCOc1ccccc1-c1cc2c(c3c1C(=O)N(C)C3=O)c1cc(C=O)ccc1n2C", "note": "[Compound 177]", "values": [
      {"measurement": "Rel. Value (megakaryocyte colony formation, control defined as 100)", "setting": "[1]; 10 nM", "value": 120}
    ]},
    {"smiles": "CC(=O)c1ccc2c(c1)c1c3c(c(-c4ccccc4OCCN(C)C)cc1n2C)C(=O)N(C)C3=O", "note": "[Compound 180]", "values": [
      {"measurement": "response vs control in vivo at 10 mg/kg", "setting": "Platelet Production; [3]", "value": 189, "unit": "%"}
    ]},
    {"smiles": "CN(C)CCOc1c(N)cccc1-c1cc2c(c3c1C(=O)N(C)C3=O)c1ccccc1n2C", "note": "[Compound 203]", "values": [
      {"measurement": "response vs control in vivo at 10 mg/kg", "setting": "Platelet Production; [3]", "value": 146, "unit": "%"}
    ]}
  ]
}
